Measured values published in patent US20140256771A1, “COMPOUNDS THAT MODULATE INTRACELLULAR CALCIUM” (CalciMedica, Inc., priority 2011, published 2014).
Read-outs that look alike come from different tables or passages of the source.

Experiments:
Orai1/STIM1 = molecular target: T1, Orai1/STIM1 (Homo sapiens, UniProt Q96D31); assay: Fluorescence-based assay of store-operated calcium entry in Orai1/STIM1 stable cells; type: cell-based; design: key to Orai1/STIM1 (IC50, μmol): A < 0.6 μmol; 0.6 μmol ≦ B ≦ 1.2 μmol; C > 1.2 μmol; — = no fit; conditions: HEK-293 cells stably expressing human STIM1 and Orai1, 50% inhibition of Peak-Basal fluo-4 signal; for IC50: read-out: Orai1/STIM1 (IC50, μmol)
T1 construct: expressed in transfected cells; host or cells: HEK-293
Method: A. Fluorescence-based Assay of Store-Operated Calcium Entry in Orai1/STIM1 Stable Cells.
Cells stably expressing recombinant human STIM1 and Orai1 are generated by transfecting a human Orai1 expression plasmid (pcDNA3.1-Orai1-cmyc) into HEK-293 cells stably overexpressing human STIM1 (Roos et al. 2005 JCB 169(3): 435-445). Colonies of cells stably expressing both STIM1 and Orai1 proteins are selected and then subcloned by limiting dilution. Cells were cultured at 37° C./6% CO2 in complete medium with 10% FBS and appropriate selection markers.
The day prior to performing the assay Orai1/STIM1 stable cells are plated in 50 μL of complete medium at 90-95% confluence in a 384 well plate. Cells are grown at 37° C./6% CO2 overnight. On the day of the assay, 1.5 μM fluo-4-AM (Invitrogen) in complete medium is added to the cells, which are then incubated for 1 hour at RT. Cells are washed once in Ca^2+-free HBSS (Hank's buffered saline solution) and 35 μl of Ca^2+-free HBSS is added to each well. Test compounds are added to wells in a 10 μL Ca^2+-free HBSS solution, prepared at 4.5× the desired final concentration, and incubated for 30 minutes at RT. The initial baseline fluorescence signal is then measured with a FLIPR^384 (Molecular Devices) plate reader. Calcium entry is initiated by adding 5 μl of 10× CaCl2 (10 mM) in HBSS, and changes in cellular fluorescence are measured with the FLIPR^384 plate reader. In each well, the magnitude of the fluorescence signal as a result of calcium entry into the cell is determined by calculating the difference between the peak fluorescence signal measured after calcium addition and the initial baseline fluorescence signal (designated Peak-Basal). IC50 values are typically calculated as the concentration that inhibited 50% of the Peak-Basal signal (Table A).

RBL-2H3 cells = assay: Fluorescence-based assay of store-operated calcium entry in RBL-2H3 cells; type: cell-based, rat; design: key to RBL-2H3 (IC50, μmol): A < 0.6 μmol; 0.6 μmol ≦ B ≦ 1.2 μmol; C > 1.2 μmol; — = no fit; conditions: thapsigargin store depletion, 50% inhibition of Upslope; for IC50: Rattus norvegicus, RBL-2H3, read-out: RBL-2H3 (IC50, μmol)
Method: B. Fluorescence-based Assay of Store-Operated Calcium Entry in RBL-2H3Cells.
RBL-2H3 cells are obtained from ATCC and maintained in complete medium with 10% FBS at 37° C./6% CO2.
The day prior to performing the assay, RBL-2H3 cells are plated in 50 μL of complete medium in a 384 well plate. Cells are grown at 37° C./6% CO2 overnight and grow to 50-60% confluence by the next day. On the assay day, 1.5 μM Fluo-4-AM dye (Invitrogen) in complete medium is added and incubated for 1 hour at RT. Cells are washed twice in Ca^2+-free HBSS buffer and 35 μL Ca^2+-free HBSS buffer is added to each well. 10 μL of a test compound prepared in a Ca^2+-free HBSS solution at 4.5× of the desired concentration is added to a well and incubated for 5 minutes at RT. 10 μL of thapsigargin prepared in a Ca^2+-free HBSS solution at 5.5× of the desired concentration (5.5 uM) is added to each well and incubated for an additional 25 minutes. The initial baseline fluorescence signal is measured with a FLIPR^384 (Molecular Devices) plate reader. 5 μL of 12× calcium in HBSS (12 mM) is added and changes in cellular fluorescence are measured with the FLIPR^384 plate reader. In each well, the change in the fluorescent signal as a function of time due to calcium entry into the cell is determined by calculating the difference between the fluorescent signal measured 7 seconds after calcium addition and the initial baseline fluorescence signal at time zero (t=0). This parameter is designated Upslope. The IC50 value is calculated as the concentration at which 50% of the Upslope is inhibited.

T1 sequence (Q96D31 whole entry): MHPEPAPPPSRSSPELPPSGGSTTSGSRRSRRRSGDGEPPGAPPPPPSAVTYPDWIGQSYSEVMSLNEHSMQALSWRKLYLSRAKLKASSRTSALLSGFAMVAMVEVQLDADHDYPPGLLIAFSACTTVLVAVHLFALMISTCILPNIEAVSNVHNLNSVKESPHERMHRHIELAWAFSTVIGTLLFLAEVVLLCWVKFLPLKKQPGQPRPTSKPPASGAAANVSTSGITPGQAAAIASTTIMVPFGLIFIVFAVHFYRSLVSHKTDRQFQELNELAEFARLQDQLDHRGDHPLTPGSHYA

In the case of Cn1nc(C(F)(F)F)cc1-c1ccc(NC(=O)c2c(Cl)cnn2C)cc1, the IC50 (Orai1/STIM1; Table iv) is reported as < 600 nM and the IC50 (RBL-2H3 cells; Table iv) is reported as < 600 nM.

With Cc1cc(C(F)(F)F)nn1-c1ccc(NC(=O)c2c(F)ccc(F)c2F)cc1 the IC50 (Orai1/STIM1; Table iv) was > 1200 nM and the IC50 (RBL-2H3 cells; Table iv) was < 600 nM.

With Cc1cccc(F)c1C(=O)Nc1ccc(-c2cn(C(F)F)nc2C)c(F)c1 the IC50 (Orai1/STIM1; Table iv) was < 600 nM and the IC50 (RBL-2H3 cells; Table iv) was < 600 nM.

Cc1cc2c(cc1-c1ccc(NCc3c(C)cccc3F)cc1F)OC(F)(F)O2 was tested, and the “Orai1/STIM1 (IC50, μmol)” value (Orai1/STIM1; Table iii) was “Max inh. <50%” and the IC50 (RBL-2H3 cells; Table iii) was < 600 nM.

CCn1nc(C(F)(F)F)cc1-c1ccc(NCc2ccccc2F)cc1 was tested, and the IC50 (Orai1/STIM1; Table iii) was < 600 nM and the IC50 (RBL-2H3 cells; Table iii) was < 600 nM.

Cc1cc2c(cc1-c1ccc(NC(=O)c3snnc3C)cc1)OC(F)(F)O2 was tested, and the IC50 (Orai1/STIM1; Table iv) was 600 to 1200 nM and the IC50 (RBL-2H3 cells; Table iv) was < 600 nM.

For Cc1cnccc1C(=O)Nc1ccc(-c2cc(C(F)(F)F)nn2C)c(F)c1, the IC50 (Orai1/STIM1; Table iv) was 600 to 1200 nM and the IC50 (RBL-2H3 cells; Table iv) was < 600 nM.

In the case of Cc1cc2c(cc1-c1ccc(NC(=O)c3ccncc3F)cc1)OC(F)(F)O2, the IC50 (Orai1/STIM1; Table iv) is reported as 600 to 1200 nM and the IC50 (RBL-2H3 cells; Table iv) is reported as < 600 nM.

For Cc1cnccc1CNc1ccc(-c2cc(C(F)(F)F)nn2C)c(F)c1, the IC50 (Orai1/STIM1; Table iii) was 600 to 1200 nM and the IC50 (RBL-2H3 cells; Table iii) was < 600 nM.

Cn1nc(C(F)(F)F)cc1-c1ccc(NC(=O)c2c(F)cncc2F)cc1 was tested, and the IC50 (Orai1/STIM1; Table iv) was < 600 nM and the IC50 (RBL-2H3 cells; Table iv) was < 600 nM.

With Cn1nc(C(F)(F)F)cc1-c1ccc(NCc2c(F)cncc2F)cc1F the IC50 (Orai1/STIM1; Table iii) was < 600 nM and the IC50 (RBL-2H3 cells; Table iii) was < 600 nM.

For Cc1ncsc1C(=O)Nc1ccc(-c2cc(C(F)(F)F)nn2C)c(F)c1, the IC50 (Orai1/STIM1; Table iv) was < 600 nM and the IC50 (RBL-2H3 cells; Table iv) was < 600 nM.

For Cn1nc(C(F)(F)F)cc1-c1c(F)cc(NC(=O)c2ccc(F)cc2F)cc1F, the IC50 (Orai1/STIM1; Table iv) was < 600 nM and the IC50 (RBL-2H3 cells; Table iv) was < 600 nM.

In the case of Cn1nc(C(F)(F)F)cc1-c1ccc(NCc2ccccc2F)cc1F, the IC50 (Orai1/STIM1; Table iii) is reported as < 600 nM and the IC50 (RBL-2H3 cells; Table iii) is reported as < 600 nM.

In the case of Cc1cccc(F)c1CNc1ccc(-c2nc(C(F)(F)F)sc2C)cc1, the IC50 (Orai1/STIM1; Table iii) is reported as 600 to 1200 nM and the IC50 (RBL-2H3 cells; Table iii) is reported as < 600 nM.

In the case of Cc1nc(C(F)(F)F)cn1-c1ccc(NC(=O)c2c(F)cncc2F)cc1F, the IC50 (Orai1/STIM1; Table iv) is reported as > 1200 nM and the IC50 (RBL-2H3 cells; Table iv) is reported as 600 to 1200 nM.

In the case of Cc1cc2c(cc1-c1ccc(NC(=O)c3c(F)cccc3F)cc1F)OC(F)(F)O2, the IC50 (Orai1/STIM1; Table iv) is reported as > 1200 nM and the IC50 (RBL-2H3 cells; Table iv) is reported as < 600 nM.

With Cn1nc(C(F)(F)F)cc1-c1ccc(NC(=O)c2ccc(F)cc2F)cc1 the IC50 (Orai1/STIM1; Table iv) was < 600 nM and the IC50 (RBL-2H3 cells; Table iv) was < 600 nM.

Cc1cc(C(F)(F)F)nn1-c1ccc(NCc2c(F)ccc(F)c2F)cc1 was tested, and the IC50 (Orai1/STIM1; Table iii) was < 600 nM and the IC50 (RBL-2H3 cells; Table iii) was < 600 nM.

In the case of Cn1nc(C(F)(F)F)cc1-c1ccc(NC(=O)c2c(F)cccc2F)cc1, the IC50 (Orai1/STIM1; Table iv) is reported as < 600 nM and the IC50 (RBL-2H3 cells; Table iv) is reported as < 600 nM.

For Cn1nc(C(F)(F)F)cc1-c1ccc(NC(=O)c2ccncc2F)cc1F, the IC50 (Orai1/STIM1; Table iv) was < 600 nM and the IC50 (RBL-2H3 cells; Table iv) was < 600 nM.

For Cc1cc(C(F)(F)F)nn1-c1ccc(NC(=O)c2c(F)cccc2F)cc1, the IC50 (Orai1/STIM1; Table iv) was 600 to 1200 nM and the IC50 (RBL-2H3 cells; Table iv) was < 600 nM.

For Cc1ccccc1C(=O)Nc1ccc(-c2nc(C(F)(F)F)sc2C)cc1, the IC50 (Orai1/STIM1; Table iv) was < 600 nM and the IC50 (RBL-2H3 cells; Table iv) was < 600 nM.

In the case of Cc1nc(C(F)(F)F)cn1-c1ccc(NC(=O)c2c(F)cccc2F)cc1, the IC50 (Orai1/STIM1; Table iv) is reported as > 1200 nM and the IC50 (RBL-2H3 cells; Table iv) is reported as < 600 nM.

Cc1nnsc1CNc1ccc(-n2nc(C(F)(F)F)cc2C)cc1 was tested, and the “Orai1/STIM1 (IC50, μmol)” value (Orai1/STIM1; Table iii) was “—” and the “RBL-2H3 (IC50, μmol)” value (RBL-2H3 cells; Table iii) was “—”.

In the case of Cc1cc(F)ccc1C(=O)Nc1ccc(-n2nc(C(F)(F)F)cc2C)c(F)c1, the IC50 (Orai1/STIM1; Table iv) is reported as 600 to 1200 nM and the IC50 (RBL-2H3 cells; Table iv) is reported as < 600 nM.

In the case of Cc1ccccc1CNc1ccc(-c2cc(C(F)(F)F)nn2C)c(F)c1, the IC50 (Orai1/STIM1; Table iii) is reported as < 600 nM and the IC50 (RBL-2H3 cells; Table iii) is reported as < 600 nM.

In the case of Cc1cc2c(cc1-c1ccc(NC(=O)c3ccccc3F)cc1F)OC(F)(F)O2, the IC50 (Orai1/STIM1; Table iv) is reported as > 1200 nM and the IC50 (RBL-2H3 cells; Table iv) is reported as < 600 nM.

Cc1nc(C(F)(F)F)cn1-c1ccc(NCc2c(F)ccc(F)c2F)cc1F was tested, and the IC50 (Orai1/STIM1; Table iii) was < 600 nM and the IC50 (RBL-2H3 cells; Table iii) was < 600 nM.

With Cc1cc2c(cc1-c1ccc(NCc3cncc(F)c3)cc1)OC(F)(F)O2 the IC50 (Orai1/STIM1; Table iii) was 600 to 1200 nM and the IC50 (RBL-2H3 cells; Table iii) was < 600 nM.
